Here are results for three molecules from patent US20100210602A1, “PhoU (PerF), A P[…] INVOLVED IN [sequence] FORMATION AND TOLERANCE TO MULTIPLE ANTIBIOTICS AND [sequence] AS A DRUG TARGET FOR [sequence] BACTERIA” (priority 2006, published 2010).

Molecules are shown by their SMILES. Values after ≈ are worked out from the molar mass of the structure shown. Like-named read-outs stand apart in the source and are kept apart here.

Format in all cases: cell-based, M. tuberculosis
Test [1] concerns PhoY1 mutant.
Test [2] has as its system PhoY2 mutant.
The subject of test [3] is PhoY1 mutant. This is another data set of the same source.
Test [4] deals with PhoY2 mutant. This is another data set of the same source.
Test [5] deals with PhoY2 mutant. This is another data set of the same source.
The subject of test [6] is PhoY1 mutant. The source holds these as a separate data set.

For `NNC(=O)c1ccncc1` [INH, isoniazid], in test [1], the “PhoY1 MIC” value came out at 0.1 µg/mL. The “PhoY2 MIC” value in test [2] amounted to 0.1 µg/mL.

As for `CO[C@H]1/C=C/O[C@@]2(C)Oc3c(C)c(O)c4c(O)c(c(/C=N/N5CCN(C)CC5)c(O)c4c3C2=O)NC(=O)/C(C)=C\C=C\[C@H](C)[C@H](O)[C@@H](C)[C@@H](O)[C@@H](C)[C@H](OC(C)=O)[C@@H]1C` [RIF, rifampin], in test [3] (8 μg/ml), the “CFU/ml 3 day” value was 4.97 × 10^5 CFU/ml and the “CFU/ml 9 day” value is reported as 3.13 × 10^4 CFU/ml. Also, in test [4], the MBC – broadly, the smallest concentration meeting the test's criterion for killing – was 0.05 µg/mL (≈ 0.0608 µM) and the minimal inhibitory concentration (MIC) (usually the lowest concentration found to suppress growth) came to 0.025 µg/mL (≈ 0.0304 µM). For the same molecule, in test [5] (8 μg/ml), the “CFU/ml 3 day” value is 2.27 × 10^5 CFU/ml and the “CFU/ml 9 day” value was <10^2 CFU/ml. In test [6], this molecule registered a minimal bactericidal concentration (MBC) of 0.2 µg/mL (≈ 0.243 µM) and an MIC of 0.05 µg/mL (≈ 0.0608 µM). The “PhoY1 MIC” value in test [1] was 0.1 µg/mL. Moreover, the “PhoY2 MIC” value in test [2] was 0.1 µg/mL.

Regarding `NC(=O)c1cnccn1` [PZA, pyrazinamide], the “CFU/ml 3 day” value in test [3] (200 μg/ml) is reported as 4.3 × 10^5 CFU/ml; in test [5] (200 μg/ml), 4.83 × 10^5 CFU/ml. The “CFU/ml 9 day” value is 3.3 × 10^3 CFU/ml in test [3] (200 μg/ml) and <10^2 CFU/ml in test [5] (200 μg/ml). The minimum bactericidal concentration (MBC) in test [4] (pH 5.9) and in test [6] (pH 5.9) was 400 µg/mL (≈ 3250 µM) each time. The figures for the minimal inhibitory concentration (MIC) in test [4] (pH 5.9) and in test [6] (pH 5.9) were 100 µg/mL (≈ 812 µM) and 200 µg/mL (≈ 1620 µM), respectively. For the same molecule, the “PhoY1 MIC” value in test [1] (pH 5.6) is 200 µg/mL. For the same molecule, the “PhoY2 MIC” value in test [2] (pH 5.6) was 100 µg/mL.
